In ChEMBL document CHEMBL3988181, “GlaxoSmithKline Published Kinase Inhibitor Set 2 Onchocerca lienalis Screening Data”:

Assay: GSK PKIS2: Screen against O. lienalis microfilariae, single point, at 3.1uM to assess reduction in motility. Compounds were also tested for cytotoxicity against Rhesus Monkey LLCMK2 cells.
Type: functional, Onchocerca lienalis, LLC-MK2
Conditions: CELL_LINE LLCMK2; CELL_SUPPLIER ECACC; CONC 3.1 uM; ORGANISM_SUPPLIER Extracted from peri-umbilical skin obtained from naturally infected cattle in the UK; temperature 37 degree C

c1ccc(-c2n[nH]cc2-c2ccnc(-c3ccc(CN4CCOCC4)cc3)c2)nc1
MOTILITY REDUCTION/CYTOTOXICITY: 40%

FC(F)(F)c1ccc(/C=C/c2cncnc2Nc2ccc3[nH]c(Cc4ccccc4)nc3c2)cc1
MOTILITY REDUCTION/CYTOTOXICITY: 100%

CN(C1=C(c2ccccc2)C(=O)NC1=O)c1ccccc1
MOTILITY REDUCTION/CYTOTOXICITY: 0%

Nc1nc(-c2ccccn2)c(-c2ccnc3ccccc23)s1
MOTILITY REDUCTION/CYTOTOXICITY: 0%

Cc1ccc(-c2nc(Nc3ccncc3)c3ccccc3n2)s1
MOTILITY REDUCTION/CYTOTOXICITY: 0%

CC(C)(C)c1ccc(-n2cnc3c(N)ncnc32)cc1
MOTILITY REDUCTION/CYTOTOXICITY: 0%

O=c1cc(N2CCOCC2)nc2n(Cc3cccc(C(F)(F)F)c3)ccn12
MOTILITY REDUCTION/CYTOTOXICITY: 26.7%

COc1cccc(C2=C(Nc3ccc(SC)cc3)C(=O)NC2=O)c1
MOTILITY REDUCTION/CYTOTOXICITY: 0%

c1ccc(Oc2ccc(Nc3ccnc4cc(-c5ccc(CN6CCNCC6)o5)ccc34)cc2)nc1
MOTILITY REDUCTION/CYTOTOXICITY: 0%

COc1ccccc1C1=C(Nc2cccc(O)c2)C(=O)NC1=O
MOTILITY REDUCTION/CYTOTOXICITY: 100%

COc1ccc2cc(-c3nc(-c4ccccc4C(C)C)[nH]c3-c3ccncc3)ccc2c1
MOTILITY REDUCTION/CYTOTOXICITY: 100%

Cc1c(Cn2ccn3c(=O)cc(N4CCOCC4)nc23)cccc1C(F)(F)F
MOTILITY REDUCTION/CYTOTOXICITY: 0%

COc1cc(Nc2nccc(-c3c(-c4cccc(NC(=O)c5c(F)cccc5F)c4)nn4ncccc34)n2)cc(OC)c1OC
MOTILITY REDUCTION/CYTOTOXICITY: 16.7%

Cc1ccc(NC(=O)Nc2ccccc2F)cc1-c1ccc(C(=O)Nc2ccncc2)cc1
MOTILITY REDUCTION/CYTOTOXICITY: 53.4%

COC(=O)Nc1nc2ccc(Oc3ccc(CC(=O)Nc4cc(C(F)(F)F)ccc4F)cc3)cc2[nH]1
MOTILITY REDUCTION/CYTOTOXICITY: 33.4%

Nc1nccc(-c2c(-c3ccc(F)cc3)ncn2C2CCN(Cc3ccccc3)CC2)n1
MOTILITY REDUCTION/CYTOTOXICITY: 0%

Cc1cccc(-c2nc(Nc3ccncc3)c3ccccc3n2)n1
MOTILITY REDUCTION/CYTOTOXICITY: 0%

COc1cc(Nc2nccc(N3CCC(NC(=O)c4cc5ccccc5s4)C3)n2)cc(OC)c1OC (stereo unspecified)
MOTILITY REDUCTION/CYTOTOXICITY: 0%

CN1CCN(Cc2cccc(-c3ccc4c(Nc5ccc(Oc6ccccc6)cc5)ccnc4c3)c2)CC1
MOTILITY REDUCTION/CYTOTOXICITY: 100%

Nc1n[nH]c2ncc(-c3ccccc3)cc12
MOTILITY REDUCTION/CYTOTOXICITY: 0%

Cn1cc(-c2ccc3c(c2)CCN3C(=O)Cc2cccc(F)c2)c2c(N)ncnc21
MOTILITY REDUCTION/CYTOTOXICITY: 33.4%

CCn1c(-c2ccncc2)nc2cnccc21
MOTILITY REDUCTION/CYTOTOXICITY: 0%

O=C(NCCNc1ccnc(NCc2ccc(F)cc2)n1)c1cc2ccccc2s1
MOTILITY REDUCTION/CYTOTOXICITY: 0%

Cc1ccc(CC(=O)N2CCc3cc(-c4cn(C)c5ncnc(N)c45)ccc32)cc1
MOTILITY REDUCTION/CYTOTOXICITY: 0%

NC(=O)c1sc(-n2cnc3ccccc32)cc1OCc1ccccc1F
MOTILITY REDUCTION/CYTOTOXICITY: 20%

Cc1ccc(NC(=O)c2ccc(Cl)cc2)cc1-c1ccc(C(=O)Nc2ccncc2)cc1
MOTILITY REDUCTION/CYTOTOXICITY: 66.7%

Nc1nc(Nc2ccccc2)cc(-c2ccc3c(N)n[nH]c3c2)n1
MOTILITY REDUCTION/CYTOTOXICITY: 0%

Cc1ccc(S(=O)(=O)Nc2ccc(Nc3nccc(Nc4cccc5[nH]ncc45)n3)cc2)cc1
MOTILITY REDUCTION/CYTOTOXICITY: 0%

COC(=O)c1cccc(NC(=O)NC2CCN(c3ccnc(Nc4ccc(OC)cc4)n3)C2)c1 (stereo unspecified)
MOTILITY REDUCTION/CYTOTOXICITY: 66.7%

CN(C)CCNS(=O)(=O)c1ccc(-c2ccnc3[nH]ccc23)cc1
MOTILITY REDUCTION/CYTOTOXICITY: 26.7%

Nc1ncc(-c2ccc3nccc(-c4ccncc4)c3c2)cc1S(=O)(=O)N1CCOCC1
MOTILITY REDUCTION/CYTOTOXICITY: 40%

c1ccc(Oc2ccc(Nc3ccnc4cc(-c5ccc(CNCCN6CCOCC6)o5)ccc34)cc2)nc1
MOTILITY REDUCTION/CYTOTOXICITY: 0%

Nc1nc(N)c2[nH]c(-c3ccccc3)nc2n1
MOTILITY REDUCTION/CYTOTOXICITY: 20%

COc1ccc(C2=C(Nc3cccc(C(=O)O)c3)C(=O)NC2=O)cc1
MOTILITY REDUCTION/CYTOTOXICITY: 20%

C[C@@H](Oc1cc(-n2cnc3cc(-c4ccnc(NCCS(C)(=O)=O)c4)ccc32)sc1C(N)=O)c1ccccc1Cl
MOTILITY REDUCTION/CYTOTOXICITY: 53.4%

Cn1cc(-c2ccc3c(c2)CCN3C(=O)Cc2cccc(C(F)(F)F)c2)c2c(N)ncnc21
MOTILITY REDUCTION/CYTOTOXICITY: 0%

COc1cc2ncn(-c3cc(OCc4ccncc4)c(C(N)=O)s3)c2cc1OC
MOTILITY REDUCTION/CYTOTOXICITY: 0%

Fc1cc(Cl)ccc1Nc1ccnc2cc(I)ccc12
MOTILITY REDUCTION/CYTOTOXICITY: 33.4%

Cc1ccccc1Cn1ccn2c(=O)cc(N3CCOCC3)nc12
MOTILITY REDUCTION/CYTOTOXICITY: 0%

COc1cc(Nc2nccc(N3CCC(NC(=O)c4cccc(NC(C)=O)c4)C3)n2)cc(OC)c1OC (stereo unspecified)
MOTILITY REDUCTION/CYTOTOXICITY: 33.4%

CNC(=O)c1ccccc1Nc1nc(Nc2ccc(N3CCOCC3)cc2)ncc1Cl
MOTILITY REDUCTION/CYTOTOXICITY: 80%

O=c1cc(N2CCOCC2)nc2n(Cc3ccc(F)c(Cl)c3)ccn12
MOTILITY REDUCTION/CYTOTOXICITY: 0%

O=C(Nc1cccc(-c2nn3ncccc3c2-c2ccnc(Nc3cccnc3)n2)c1)c1c(F)cccc1F
MOTILITY REDUCTION/CYTOTOXICITY: 0%

c1ccc(-c2ccc3c(Nc4ccc5[nH]ccc5c4)ccnc3c2)nc1
MOTILITY REDUCTION/CYTOTOXICITY: 33.4%

O=C1NC(=O)C(c2ccc(Cl)cc2)=C1Nc1ccccc1
MOTILITY REDUCTION/CYTOTOXICITY: 33.4%

CCc1nc(-c2cccc(N(C)S(=O)(=O)c3ccccc3)c2)c(-c2ccnc(Nc3ccc(N4CCN(C(C)=O)CC4)nc3)n2)s1
MOTILITY REDUCTION/CYTOTOXICITY: 0%

CS(=O)(=O)CCNCc1nc(-c2ccc3ncnc(Nc4ccc5c(cnn5Cc5ccccc5)c4)c3c2)cs1
MOTILITY REDUCTION/CYTOTOXICITY: 33.4%

Nc1ncnc2occ(-c3ccc(NC(=O)Nc4cc(C(F)(F)F)ccc4F)cc3)c12 [GW770249X]
MOTILITY REDUCTION/CYTOTOXICITY: 0%

CCn1c(-c2ccccn2)nc2cnccc21
MOTILITY REDUCTION/CYTOTOXICITY: 0%

O=C(O)c1ccc(-c2nc(-c3ccc(F)cc3)c(-c3ccncc3)[nH]2)cc1
MOTILITY REDUCTION/CYTOTOXICITY: 0%

Fc1ccc(-c2ncn(C3CCNCC3)c2-c2ccnc(Nc3ccccc3)n2)cc1
MOTILITY REDUCTION/CYTOTOXICITY: 0%

O=C1NC(=O)C(c2ccc(Cl)cc2)=C1Nc1cccc(C(=O)O)c1
MOTILITY REDUCTION/CYTOTOXICITY: 0%

CC(C)(C)OC(=O)NC1CCCN(c2cc(-c3ccc4c(N)n[nH]c4c3)nc(N)n2)C1 (stereo unspecified)
MOTILITY REDUCTION/CYTOTOXICITY: 0%

COc1cccc2c(-c3ccncc3)c(-c3ccc(F)cc3)nn12
MOTILITY REDUCTION/CYTOTOXICITY: 66.7%

COc1ccc(-c2oc3ncnc(N)c3c2-c2ccc(OC)cc2)cc1
MOTILITY REDUCTION/CYTOTOXICITY: 20%

O=C(Nc1n[nH]c2nc(-c3ccccc3)c(Br)cc12)C1CC1
MOTILITY REDUCTION/CYTOTOXICITY: 20%

Cc1ccc(C)c(NC(=O)NCCNc2ccnc(Nc3ccc(F)cc3)n2)c1
MOTILITY REDUCTION/CYTOTOXICITY: 86.7%

Cc1cccc(-c2nc(Nc3cccc(C(N)=O)c3)c3ccccc3n2)n1
MOTILITY REDUCTION/CYTOTOXICITY: 46.7%

Cc1cccc(-c2nc(Nc3ccc4nn[nH]c4c3)c3ccccc3n2)n1
MOTILITY REDUCTION/CYTOTOXICITY: 20%

Nc1ncc(-c2cccnc2)c2scc(-c3ccc4c(c3)CCN4C(=O)Cc3ccccc3)c12
MOTILITY REDUCTION/CYTOTOXICITY: 0%

Cc1cccc(-c2cc(-c3c[nH]nc3-c3ccccn3)ccn2)c1
MOTILITY REDUCTION/CYTOTOXICITY: 0%

COC(=O)Nc1nc2ccc(Oc3ccc(NC(=O)Nc4cc(C(F)(F)F)ccc4Cl)cc3)cc2[nH]1
MOTILITY REDUCTION/CYTOTOXICITY: 0%

Fc1ccc(-c2ncn(CCCN3CCOCC3)c2-c2cccnc2)cc1
MOTILITY REDUCTION/CYTOTOXICITY: 0%

COC(=O)c1cccc(NC(=O)NC2CCN(c3ccnc(NCc4ccc(F)cc4)n3)CC2)c1
MOTILITY REDUCTION/CYTOTOXICITY: 20%

CC(C)S(=O)(=O)N1CCN(Cc2ccc3c(c2)nc(NC(=O)c2ccsc2)n3C[C@H](O)c2ccccc2)CC1
MOTILITY REDUCTION/CYTOTOXICITY: 0%

CCCc1ccc(S(=O)(=O)NC2CCN(c3ccnc(Nc4ccc(OC)cc4)n3)C2)cc1 (stereo unspecified)
MOTILITY REDUCTION/CYTOTOXICITY: 0%

O=C(Nc1ccccc1F)NC1CCN(c2ccnc(Nc3ccc(F)cc3)n2)C1 (stereo unspecified)
MOTILITY REDUCTION/CYTOTOXICITY: 0%

O=c1[nH]ccc2nc(N[C@@H]3CCNC3)nc(Nc3ccc4c(c3)S(=O)(=O)CC4)c12
MOTILITY REDUCTION/CYTOTOXICITY: 0%

Cn1cncc1C(=O)NC1CCN(c2ccnc(Nc3ccc(F)cc3)n2)C1 (stereo unspecified)
MOTILITY REDUCTION/CYTOTOXICITY: 0%

CN(C)CCOc1ccc(-c2cc(-c3c[nH]nc3-c3ccccn3)ccn2)cc1
MOTILITY REDUCTION/CYTOTOXICITY: 0%

O=c1cc(N2CCOCC2)nc2n(Cc3cccc4ccccc34)ccn12
MOTILITY REDUCTION/CYTOTOXICITY: 0%

N#Cc1ccc(-c2cc(-c3c[nH]nc3-c3ccccn3)ccn2)cc1
MOTILITY REDUCTION/CYTOTOXICITY: 0%

Cc1nccc(-c2c(-c3ccc(F)cc3)ncn2CCCN2CCOCC2)n1
MOTILITY REDUCTION/CYTOTOXICITY: 0%

COc1cccc(C2=C(N(C)c3ccccc3)C(=O)NC2=O)c1
MOTILITY REDUCTION/CYTOTOXICITY: 0%

NCC(NC(=O)c1cc(-c2cn[nH]c2)c(-c2ccnc3[nH]ccc23)s1)c1ccccc1 (stereo unspecified)
MOTILITY REDUCTION/CYTOTOXICITY: 0%

Cc1cccc(Nc2nc(NCCN)ncc2C(N)=O)c1
MOTILITY REDUCTION/CYTOTOXICITY: 0%

Cc1cccc2c(-c3ccncn3)c(-c3ccc(F)cc3)nn12
MOTILITY REDUCTION/CYTOTOXICITY: 13.4%

Oc1cc(-c2nc(-c3ccccc3)[nH]c2-c2ccncc2)ccc1Cl
MOTILITY REDUCTION/CYTOTOXICITY: 0%

CCCCCc1nc2c(N)ncnc2n1CCCCC
MOTILITY REDUCTION/CYTOTOXICITY: 0%

Fc1ccccc1COc1ccc(Nc2ncnc3ccc(-c4nnc(C(F)(F)F)o4)cc23)cc1Cl
MOTILITY REDUCTION/CYTOTOXICITY: 0%

CN(C)c1ncnc2nc[nH]c12 [DIMETHYLADENINE]
MOTILITY REDUCTION/CYTOTOXICITY: 0%
